Measurements published in ChEMBL document CHEMBL1201862, “PubChem BioAssay data set” (2004).
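Protocol summary: plate cells (96-well), add compound at 5 concentrations, incubate 48 h, interpolate endpoints linearly. The concentration for 50% growth inhibition is given as GI50.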 Active and inactive are the calls of the source. Rule as the data show it: active = GI50 up to about 1.1 µM and inactive = higher.

Columns and labels:
Test in all cases: NCI anticancer screen, dose series, 48 h
786-0 = system: 786-0
A498 = system: A498
A549 = system: A549
ACHN = system: ACHN
CAKI-1 = system: CAKI-1
CCRF-CEM = system: CCRF-CEM
COLO 205 = system: COLO 205
DLD-1 = system: DLD-1
DMS-273 = system: DMS-273
EKVX = system: EKVX
HCC 2998 = system: HCC 2998
HCT-116 = system: HCT-116
HCT-15 = system: HCT-15
HL-60 = system: HL-60
HOP-18 = system: HOP-18
HOP-62 = system: HOP-62
HOP-92 = system: HOP-92
HT-29 = system: HT-29
IGROV-1 = system: IGROV-1
K562 = system: K562
KM-20L2 = system: KM-20L2
KM12 = system: KM12
LOX IMVI = system: LOX IMVI
M14 = system: M14
M19-MEL = system: M19-MEL
MOLT-4 = system: MOLT-4
Malme-3M = system: Malme-3M
NCI-H226 = system: NCI-H226
NCI-H460 = system: NCI-H460
NCI-H522 = system: NCI-H522
OVCAR-3 = system: OVCAR-3
OVCAR-4 = system: OVCAR-4
OVCAR-5 = system: OVCAR-5
RPMI-8226 = system: RPMI-8226
RXF 393 = system: RXF 393
SF-268 = system: SF-268
SF-295 = system: SF-295
SF-539 = system: SF-539
SK-MEL-28 = system: SK-MEL-28
SK-MEL-2 = system: SK-MEL-2
SK-MEL-5 = system: SK-MEL-5
SK-OV-3 = system: SK-OV-3
SN12C = system: SN12C
SNB-19 = system: SNB-19
SNB-75 = system: SNB-75
SNB-78 = system: SNB-78
SR = system: SR
SW-620 = system: SW-620
TK-10 = system: TK-10
U-251 = system: U-251
UACC-257 = system: UACC-257
UACC-62 = system: UACC-62
UO-31 = system: UO-31
DMS-114 = system: DMS-114
LXFL 529 = system: LXFL 529
NCI-H23 = system: NCI-H23
OVCAR-8 = system: OVCAR-8

CCCC(=O)N[C@H]1C2C3CC4C5CC(C42)C1(C)C53 (stereo partly specified)
GI50 (786-0): > 100 µM (inactive)
GI50 (A498): > 100 µM (inactive)
GI50 (A549): > 100 µM (inactive)
GI50 (ACHN): > 100 µM (inactive)
GI50 (CAKI-1): > 100 µM (inactive)
GI50 (CCRF-CEM): > 100 µM (inactive)
GI50 (COLO 205): > 100 µM (inactive)
GI50 (DLD-1): > 100 µM (inactive)
GI50 (DMS-273): > 100 µM (inactive)
GI50 (EKVX): > 100 µM (inactive)
GI50 (HCC 2998): > 100 µM (inactive)
GI50 (HCT-116): > 100 µM (inactive)
GI50 (HCT-15): > 100 µM
GI50 (HL-60): > 100 µM (inactive)
GI50 (HOP-18): > 100 µM (inactive)
GI50 (HOP-62): > 100 µM (inactive)
GI50 (HOP-92): > 100 µM (inactive)
GI50 (HT-29): > 100 µM (inactive)
GI50 (IGROV-1): > 100 µM (inactive)
GI50 (K562): > 100 µM (inactive)
GI50 (KM-20L2): > 100 µM (inactive)
GI50 (KM12): > 100 µM (inactive)
GI50 (LOX IMVI): > 100 µM (inactive)
GI50 (M14): > 100 µM (inactive)
GI50 (M19-MEL): > 100 µM (inactive)
GI50 (MOLT-4): > 100 µM (inactive)
GI50 (Malme-3M): > 100 µM (inactive)
GI50 (NCI-H226): > 100 µM (inactive)
GI50 (NCI-H460): > 100 µM (inactive)
GI50 (NCI-H522): > 100 µM (inactive)
GI50 (OVCAR-3): > 100 µM (inactive)
GI50 (OVCAR-4): > 100 µM (inactive)
GI50 (OVCAR-5): > 100 µM (inactive)
GI50 (RPMI-8226): > 100 µM (inactive)
GI50 (RXF 393): > 100 µM (inactive)
GI50 (SF-268): > 100 µM (inactive)
GI50 (SF-295): > 100 µM (inactive)
GI50 (SF-539): > 100 µM (inactive)
GI50 (SK-MEL-28): > 100 µM (inactive)
GI50 (SK-MEL-2): > 100 µM (inactive)
GI50 (SK-MEL-5): > 100 µM (inactive)
GI50 (SK-OV-3): > 100 µM (inactive)
GI50 (SN12C): > 100 µM (inactive)
GI50 (SNB-19): > 100 µM (inactive)
GI50 (SNB-75): > 100 µM (inactive)
GI50 (SNB-78): > 100 µM (inactive)
GI50 (SR): > 100 µM (inactive)
GI50 (SW-620): > 100 µM (inactive)
GI50 (TK-10): > 100 µM (inactive)
GI50 (U-251): > 100 µM (inactive)
GI50 (UACC-257): > 100 µM (inactive)
GI50 (UACC-62): > 100 µM (inactive)
GI50 (UO-31): > 100 µM (inactive)

O=C(/C=C/c1ccco1)c1ccc(NCc2nc3ccccc3[nH]2)cc1
GI50 (786-0): 14.6 µM (inactive)
GI50 (A498): 14.4 µM (inactive)
GI50 (ACHN): 17.5 µM (inactive)
GI50 (CAKI-1): 17.2 µM (inactive)
GI50 (CCRF-CEM): 13 µM (inactive)
GI50 (COLO 205): 13.5 µM (inactive)
GI50 (DLD-1): 15 µM (inactive)
GI50 (DMS-114): 12 µM (inactive)
GI50 (DMS-273): 17.5 µM (inactive)
GI50 (EKVX): 14.6 µM (inactive)
GI50 (HCC 2998): 14.6 µM (inactive)
GI50 (HCT-15): 15 µM
GI50 (HL-60): 13 µM (inactive)
GI50 (HOP-18): 20.9 µM (inactive)
GI50 (HOP-62): 19.1 µM (inactive)
GI50 (HOP-92): 12.2 µM (inactive)
GI50 (HT-29): 19.8 µM (inactive)
GI50 (IGROV-1): 18.1 µM (inactive)
GI50 (K562): 15.2 µM (inactive)
GI50 (KM-20L2): 18.7 µM (inactive)
GI50 (KM12): 10.3 µM (inactive)
GI50 (LOX IMVI): 12.2 µM (inactive)
GI50 (LXFL 529): 14.3 µM (inactive)
GI50 (M14): 16.9 µM (inactive)
GI50 (M19-MEL): 14.9 µM (inactive)
GI50 (MOLT-4): 10.4 µM (inactive)
GI50 (Malme-3M): 19 µM (inactive)
GI50 (NCI-H226): 1.73 µM (inactive)
GI50 (NCI-H23): 13.5 µM (inactive)
GI50 (NCI-H460): 23.3 µM (inactive)
GI50 (NCI-H522): 9.62 µM (inactive)
GI50 (OVCAR-3): 16.6 µM (inactive)
GI50 (OVCAR-4): 19.2 µM (inactive)
GI50 (OVCAR-5): 17.7 µM (inactive)
GI50 (OVCAR-8): 17.9 µM (inactive)
GI50 (SF-268): 20 µM (inactive)
GI50 (SF-295): 15.6 µM (inactive)
GI50 (SF-539): 18 µM (inactive)
GI50 (SK-MEL-28): 18 µM (inactive)
GI50 (SK-MEL-2): 19.1 µM (inactive)
GI50 (SK-MEL-5): 14.8 µM (inactive)
GI50 (SK-OV-3): 18.3 µM (inactive)
GI50 (SN12C): 17.2 µM (inactive)
GI50 (SNB-19): 15.6 µM (inactive)
GI50 (SNB-75): 15.8 µM (inactive)
GI50 (SNB-78): 21.3 µM (inactive)
GI50 (SR): 10.8 µM (inactive)
GI50 (SW-620): 16 µM (inactive)
GI50 (TK-10): 17.9 µM (inactive)
GI50 (U-251): 10.9 µM (inactive)
GI50 (UACC-257): 11.1 µM (inactive)
GI50 (UACC-62): 14 µM (inactive)
GI50 (UO-31): 13.8 µM (inactive)
